Columns and labels:
[1] = molecular target: T1, Amine oxidase [flavin-containing] A (Homo sapiens, UniProt P21397); experiment: Inhibition of recombinant human MAO-A using p-tyramine as substrate preincubated for 15 mins followed by substrate addition measured over 15 mins by Amplex red reagent-based fluorimetric method
T1 sequence (P21397 whole entry): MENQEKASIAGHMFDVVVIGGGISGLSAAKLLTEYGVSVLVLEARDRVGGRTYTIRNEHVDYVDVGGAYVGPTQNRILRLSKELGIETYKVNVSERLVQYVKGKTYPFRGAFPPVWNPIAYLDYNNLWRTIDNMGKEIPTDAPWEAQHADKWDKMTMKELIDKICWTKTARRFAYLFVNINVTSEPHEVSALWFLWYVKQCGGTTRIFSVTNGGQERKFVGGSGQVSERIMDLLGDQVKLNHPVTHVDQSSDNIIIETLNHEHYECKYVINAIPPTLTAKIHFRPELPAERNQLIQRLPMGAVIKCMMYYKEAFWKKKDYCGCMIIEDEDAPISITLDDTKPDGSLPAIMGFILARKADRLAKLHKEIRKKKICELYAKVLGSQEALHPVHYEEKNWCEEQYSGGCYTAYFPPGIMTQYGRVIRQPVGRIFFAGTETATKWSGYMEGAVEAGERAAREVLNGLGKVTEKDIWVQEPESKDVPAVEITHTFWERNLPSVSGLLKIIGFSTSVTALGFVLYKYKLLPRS

[2] = molecular target: T2, Amine oxidase [flavin-containing] B (Homo sapiens, UniProt P27338); experiment: Inhibition of recombinant human MAO-B using p-tyramine as substrate preincubated for 15 mins followed by substrate addition measured over 15 mins by Amplex red reagent-based fluorimetric method
T2 sequence (P27338 whole entry): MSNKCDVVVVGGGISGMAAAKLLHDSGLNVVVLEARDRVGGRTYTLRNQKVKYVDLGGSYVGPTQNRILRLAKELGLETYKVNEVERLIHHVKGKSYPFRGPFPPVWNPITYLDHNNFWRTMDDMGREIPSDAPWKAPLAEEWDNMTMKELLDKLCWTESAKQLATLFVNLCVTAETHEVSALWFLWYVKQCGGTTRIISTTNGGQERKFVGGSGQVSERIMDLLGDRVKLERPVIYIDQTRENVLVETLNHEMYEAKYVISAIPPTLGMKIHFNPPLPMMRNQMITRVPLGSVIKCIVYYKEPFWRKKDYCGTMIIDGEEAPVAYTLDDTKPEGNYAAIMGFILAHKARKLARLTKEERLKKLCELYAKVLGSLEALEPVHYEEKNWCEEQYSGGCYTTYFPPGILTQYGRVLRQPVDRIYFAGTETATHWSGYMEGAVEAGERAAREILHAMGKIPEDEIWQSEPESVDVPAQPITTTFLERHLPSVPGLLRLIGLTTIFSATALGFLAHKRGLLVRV

Homo sapiens = species: Homo sapiens; experiment: Selectivity index, ratio of IC50 for recombinant human MAO-A to IC50 for recombinant human MAO-B

C#CCNC1CCc2c(SCc3ccccc3)cccc21 (centres undefined)
IC50 [1]: > 60 µM | IC50 [2]: 6.24 µM | Ratio IC50 (Homo sapiens): > 9.62

C#CCNC1CCc2c(OCCOc3cccc(NC(=O)CCl)c3)cccc21 (centres undefined)
IC50 [1]: > 60 µM | IC50 [2]: 6.91 µM | Ratio IC50 (Homo sapiens): > 8.68

C#CCNC1CCc2c(OCCOc3cccc(NC(C)=O)c3)cccc21 (centres undefined)
IC50 [1]: 8.3 µM | IC50 [2]: 5.52 µM | Ratio IC50 (Homo sapiens): 1.5

C#CCNC1CCc2c(OCc3cccc(Br)c3)cccc21 (centres undefined)
IC50 [1]: 9.55 µM | IC50 [2]: 0.65 µM | Ratio IC50 (Homo sapiens): 14.7

C#CCNC1CCc2c(OCCOc3cccc4ccccc34)cccc21 (centres undefined)
IC50 [1]: > 60 µM | IC50 [2]: 3.39 µM | Ratio IC50 (Homo sapiens): > 17.7

C#CCNC1CCc2c(OCc3ccc(C(F)(F)F)cc3)cccc21 (centres undefined)
IC50 [1]: > 60 µM | IC50 [2]: 1.39 µM | Ratio IC50 (Homo sapiens): > 43.7

C#CCNC1CCc2c(OCCCOc3cccc(I)c3)cccc21 (centres undefined)
IC50 [1]: > 60 µM | IC50 [2]: 18 µM | Ratio IC50 (Homo sapiens): > 3.33

C#CCNC1CCc2c(OCCOc3ccccc3)cccc21 (centres undefined)
IC50 [1]: 14.1 µM | IC50 [2]: 4.57 µM | Ratio IC50 (Homo sapiens): 3.08

C#CCNC1CCc2c(OCCc3cccc(NC(=O)c4ccc(Cl)cc4)c3)cccc21 (centres undefined)
IC50 [1]: 9.33 µM | IC50 [2]: 0.02 µM | Ratio IC50 (Homo sapiens): 466

C#CCNC1CCc2c(OCCc3cccc(Cl)c3)cccc21 (centres undefined)
IC50 [1]: > 60 µM | IC50 [2]: 5.87 µM | Ratio IC50 (Homo sapiens): > 10.2

C#CCNC1CCc2c(OCc3cccc(C)c3)cccc21 (centres undefined)
IC50 [1]: 11.2 µM | IC50 [2]: 0.55 µM | Ratio IC50 (Homo sapiens): 20.4

C#CCNC1CCc2c(OCc3cccc(Cl)c3)cccc21 (centres undefined)
IC50 [1]: 7 µM | IC50 [2]: 0.33 µM | Ratio IC50 (Homo sapiens): 21.2

C#CCNC1CCc2c(OCCCOc3ccccc3)cccc21 (centres undefined)
IC50 [1]: > 60 µM | IC50 [2]: 10.2 µM | Ratio IC50 (Homo sapiens): > 5.87

C#CCNC1CCc2c(OCCc3ccc(Cl)cc3)cccc21 (centres undefined)
IC50 [1]: 10.2 µM | IC50 [2]: 2.51 µM | Ratio IC50 (Homo sapiens): 4.07

C#CCNC1CCc2c(OCc3ccc(F)c(F)c3)cccc21 (centres undefined)
IC50 [1]: 7.22 µM | IC50 [2]: 1.41 µM | Ratio IC50 (Homo sapiens): 5.12

C#CCNC1CCc2c(OCCCOc3ccc(CC)cc3)cccc21 (centres undefined)
IC50 [1]: 31.4 µM | IC50 [2]: 10.5 µM | Ratio IC50 (Homo sapiens): 2.99

C#CCNC1CCc2c(OCCCOc3cc(C)c(Cl)c(C)c3)cccc21 (centres undefined)
IC50 [1]: > 60 µM | IC50 [2]: 6.91 µM | Ratio IC50 (Homo sapiens): > 8.68

C#CCNC1CCc2c(OCc3ccc(C)cc3)cccc21 (centres undefined)
IC50 [1]: 4.33 µM | IC50 [2]: 1.09 µM | Ratio IC50 (Homo sapiens): 3.97

C#CCNC1CCc2c(OCc3ccc4ccccc4c3)cccc21 (centres undefined)
IC50 [1]: > 60 µM | IC50 [2]: 6.21 µM | Ratio IC50 (Homo sapiens): > 9.66

C#CCNC1CCc2c(OCc3cccc(F)c3)cccc21 (centres undefined)
IC50 [1]: 5.2 µM | IC50 [2]: 0.28 µM | Ratio IC50 (Homo sapiens): 18.6

C#CCNC1CCc2c(OCCCOc3cccc4ccccc34)cccc21 (centres undefined)
IC50 [1]: > 60 µM | IC50 [2]: > 60 µM

C#CCNC1CCc2c(OCCc3ccccc3)cccc21 (centres undefined)
IC50 [1]: 9.1 µM | IC50 [2]: 3.87 µM | Ratio IC50 (Homo sapiens): 2.35

C#CCNC1CCc2c(OCc3ccc(F)cc3)cccc21 (centres undefined)
IC50 [1]: 7.8 µM | IC50 [2]: 1.87 µM | Ratio IC50 (Homo sapiens): 4.17

C#CCNC1CCc2c(OCCCOc3ccc(C(C)C)cc3)cccc21 (centres undefined)
IC50 [1]: 42.7 µM | IC50 [2]: 5.38 µM | Ratio IC50 (Homo sapiens): 7.93

C#CCNC1CCc2c(OCc3ccccc3)cccc21 (centres undefined)
IC50 [1]: 15.4 µM | IC50 [2]: 1.97 µM | Ratio IC50 (Homo sapiens): 7.84

— ChEMBL document CHEMBL4145484 (Eur J Med Chem, 2018)
